From ChEMBL document CHEMBL1201862, “PubChem BioAssay data set” (2004)
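96-well plates; 48 h exposure; 5 concentrations. Endpoints by linear interpolation between flanking doses. Not reached: highest tested concentration assigned. At the GI50, growth is halved.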 The source made the active and inactive calls. No stated cut-off is given here; in the data, active = GI50 up to about 1.1 µM and inactive = higher.

Assays:
Experiment in all cases: inhibition of tumour cell growth, NCI panel, 48 h
[1] = test system: SN12C
[2] = test system: HCT-116
[3] = test system: NCI-H460
[4] = test system: K562
[5] = test system: NCI/ADR-RES
[6] = test system: HL-60
[7] = test system: NCI-H23
[8] = test system: OVCAR-8
[9] = test system: U-251
[10] = test system: CAKI-1
[11] = test system: HOP-62
[12] = test system: Malme-3M
[13] = test system: UO-31
[14] = test system: SF-295
[15] = test system: NCI-H226
[16] = test system: MDA-MB-435
[17] = test system: HCT-15
[18] = test system: HOP-92
[19] = test system: NCI-H522
[20] = test system: SF-539

SMILES: CC(C(O)c1ccccc1)N(C)/N=N/c1nc2c([nH]1)c(=O)n(C)c(=O)n2C (stereo not given)
- GI50 [1]: 52.6 µM (inactive)
- GI50 [2]: > 100 µM (inactive)
- GI50 [3]: 25.2 µM (inactive)
- GI50 [4]: 91 µM (inactive)
- GI50 [5]: > 100 µM (inactive)
- GI50 [6]: > 100 µM (inactive)
- GI50 [7]: 60.8 µM (inactive)
- GI50 [8]: > 100 µM (inactive)
- GI50 [9]: > 100 µM (inactive)
- GI50 [10]: 58.6 µM (inactive)
- GI50 [11]: > 100 µM (inactive)
- GI50 [12]: > 100 µM (inactive)
- GI50 [13]: > 100 µM (inactive)
- GI50 [14]: > 100 µM (inactive)
- GI50 [15]: > 100 µM (inactive)
- GI50 [16]: 75.3 µM (inactive)
- GI50 [17]: 90.4 µM

SMILES: CC1OC1P(=O)(O)O (stereo not given)
- GI50 [18]: > 100 µM (inactive)
- GI50 [1]: > 100 µM (inactive)
- GI50 [2]: > 100 µM (inactive)
- GI50 [3]: > 100 µM (inactive)
- GI50 [4]: > 100 µM (inactive)
- GI50 [7]: > 100 µM (inactive)
- GI50 [8]: > 100 µM (inactive)
- GI50 [9]: > 100 µM (inactive)
- GI50 [10]: > 100 µM (inactive)
- GI50 [11]: > 100 µM (inactive)
- GI50 [13]: > 100 µM (inactive)
- GI50 [14]: > 100 µM (inactive)
- GI50 [16]: > 100 µM (inactive)
- GI50 [17]: > 100 µM

SMILES: CCOC(=O)c1cc(-c2ccc(Cl)cc2)c([N+](=O)[O-])n1C
- GI50 [18]: > 10 µM (inactive)
- GI50 [1]: > 10 µM (inactive)
- GI50 [2]: > 10 µM (inactive)
- GI50 [3]: > 10 µM (inactive)
- GI50 [4]: > 10 µM (inactive)
- GI50 [19]: > 10 µM (inactive)
- GI50 [6]: > 10 µM (inactive)
- GI50 [7]: > 10 µM (inactive)
- GI50 [20]: > 10 µM (inactive)
- GI50 [8]: > 10 µM (inactive)
- GI50 [9]: > 10 µM (inactive)
- GI50 [12]: > 10 µM (inactive)
- GI50 [13]: 5.48 µM (inactive)
- GI50 [14]: > 10 µM (inactive)
- GI50 [15]: > 10 µM (inactive)
- GI50 [16]: > 10 µM (inactive)
- GI50 [17]: > 10 µM

SMILES: CN1CC=C(C#CC(C)(C)O)CC1
- GI50 [1]: > 37.5 µM (inactive)
- GI50 [2]: > 37.5 µM (inactive)
- GI50 [3]: > 37.5 µM (inactive)
- GI50 [4]: > 37.5 µM (inactive)
- GI50 [5]: > 37.5 µM (inactive)
- GI50 [6]: > 37.5 µM (inactive)
- GI50 [7]: > 37.5 µM (inactive)
- GI50 [8]: > 37.5 µM (inactive)
- GI50 [9]: > 37.5 µM (inactive)
- GI50 [10]: > 37.5 µM (inactive)
- GI50 [11]: > 37.5 µM (inactive)
- GI50 [12]: 30.8 µM (inactive)
- GI50 [13]: > 37.5 µM (inactive)
- GI50 [14]: > 37.5 µM (inactive)
- GI50 [15]: > 37.5 µM (inactive)
- GI50 [16]: > 37.5 µM (inactive)
- GI50 [17]: > 37.5 µM

SMILES: FC(F)(F)c1ccc(/C=N/C23CC4CC(CC(C4)C2)C3)cc1
- GI50 [18]: > 100 µM (inactive)
- GI50 [1]: > 100 µM (inactive)
- GI50 [2]: > 100 µM (inactive)
- GI50 [3]: > 100 µM (inactive)
- GI50 [4]: > 100 µM (inactive)
- GI50 [19]: > 100 µM (inactive)
- GI50 [6]: > 100 µM (inactive)
- GI50 [7]: > 100 µM (inactive)
- GI50 [20]: > 100 µM (inactive)
- GI50 [8]: > 100 µM (inactive)
- GI50 [9]: > 100 µM (inactive)
- GI50 [10]: > 100 µM (inactive)
- GI50 [11]: > 100 µM (inactive)
- GI50 [12]: > 100 µM (inactive)
- GI50 [13]: > 100 µM (inactive)
- GI50 [14]: > 100 µM (inactive)
- GI50 [15]: > 100 µM (inactive)
- GI50 [17]: > 100 µM

SMILES: Oc1ccc(Cc2cc(Cc3ccc(O)cc3)cc(Cc3ccc(O)cc3)c2)cc1
- GI50 [1]: > 50 µM (inactive)
- GI50 [2]: > 50 µM (inactive)
- GI50 [3]: > 50 µM (inactive)
- GI50 [4]: > 50 µM (inactive)
- GI50 [5]: > 50 µM (inactive)
- GI50 [19]: > 50 µM (inactive)
- GI50 [6]: > 50 µM (inactive)
- GI50 [20]: > 50 µM (inactive)
- GI50 [8]: > 50 µM (inactive)
- GI50 [9]: > 50 µM (inactive)
- GI50 [11]: > 50 µM (inactive)
- GI50 [12]: > 50 µM (inactive)
- GI50 [13]: > 50 µM (inactive)
- GI50 [14]: > 50 µM (inactive)
- GI50 [15]: > 50 µM (inactive)
- GI50 [16]: > 50 µM (inactive)
- GI50 [17]: > 50 µM

SMILES: C=CCCCC1CCCNC1=O (stereo not given)
- GI50 [18]: > 100 µM (inactive)
- GI50 [1]: > 100 µM (inactive)
- GI50 [2]: > 100 µM (inactive)
- GI50 [3]: 42.6 µM (inactive)
- GI50 [4]: > 100 µM (inactive)
- GI50 [19]: > 100 µM (inactive)
- GI50 [7]: > 100 µM (inactive)
- GI50 [20]: > 100 µM (inactive)
- GI50 [8]: > 100 µM (inactive)
- GI50 [9]: > 100 µM (inactive)
- GI50 [10]: > 100 µM (inactive)
- GI50 [11]: > 100 µM (inactive)
- GI50 [13]: > 100 µM (inactive)
- GI50 [14]: > 100 µM (inactive)
- GI50 [15]: > 100 µM (inactive)
- GI50 [16]: > 100 µM (inactive)
- GI50 [17]: 19 µM

SMILES: CN(C)CCNC(=O)c1cnn(C)c1[N+](=O)[O-]
- GI50 [1]: > 100 µM (inactive)
- GI50 [2]: 50.9 µM (inactive)
- GI50 [3]: 77.4 µM (inactive)
- GI50 [4]: > 100 µM (inactive)
- GI50 [19]: > 100 µM (inactive)
- GI50 [6]: 35.2 µM (inactive)
- GI50 [7]: 73.5 µM (inactive)
- GI50 [20]: > 100 µM (inactive)
- GI50 [8]: > 100 µM (inactive)
- GI50 [9]: > 100 µM (inactive)
- GI50 [10]: > 100 µM (inactive)
- GI50 [11]: > 100 µM (inactive)
- GI50 [12]: 18.6 µM (inactive)
- GI50 [13]: > 100 µM (inactive)
- GI50 [14]: > 100 µM (inactive)
- GI50 [15]: > 100 µM (inactive)
- GI50 [16]: > 100 µM (inactive)
- GI50 [17]: > 100 µM
